The source of these data is patent US20240325386A1, “THERAPEUTIC AGENT FOR COVID-19” (FUJIFILM Toyama Chemical Co., Ltd., priority 2021, published 2024).

In assay [1] the test system is SARS-CoV-2. The settings on record: Japanese phase III clinical study, as reported in Non-patent Literature 4 (news release); cited from earlier work.
The test system of assay [2] is SARS-CoV-2. It counts as in vivo.
[3] abbreviates: mITT, N = 107, improvement in body temperature, SpO2, chest imaging and SARS-CoV-2 negative conversion.

Each structure is given as a SMILES string. Where two headings read alike, the source gives them in different places.

In the case of `NC(=O)c1nc(F)cnc1O` [Compound A, 6-fluoro-3-hydroxy-2-pyrazinecarboxamide], the “time to improvement of body temperature, SpO2, chest image findings and SARS-CoV-2 negative conversion (primary endpoint) shorter than in the control group” value in assay [1] is “approximately 3 days”. The “median time to improvement shorter than in the control group” value in assay [2] (mITT, Compound A group 107 patients vs control group 49 patients) is “approximately 3 days”. Also, in assay [2] (mITT, Compound A group N = 107, 1,800 mg BID Day 1 + 800 mg BID up to 13 days, oral, plus standard of care), the Patients with improvement worked out at 81. Moreover, in assay [2] (setting [3]), the “Median time to improvement in 25% of patients” value is 7.8 days, the “Median time to improvement in 50% of patients” value is reported as 11.9 days and the “Median time to improvement in 75% of patients” value is 15.6 days. In addition, the “median time to improvement shorter than in the control group” value in assay [2] (subgroup of patients testing negative for both IgG antibody and IgA antibody) is “approximately 5 days”.
